Assays:
Type in all cases: in vivo
Coprococcus eutactus = assay: bacterial copy number of Coprococcus eutactus in cecal feces of mice; conditions: after 4 weeks of DHZ administration
Experimental: (§1) Twenty-four pure Swiss male mice were randomly divided into three groups, with 8 mice in each group, and were given food and water freely under the light and dark cycle of 12:12 hours. The first group was the control group (group 1, no DHZ), the second group was given by gavage 50 mg/kg DHZ (group 2), and the third group was given by gavage 100 mg/kg DHZ (group 3). DHZ solution was prepared with 5% DMSO, 25% PEG-400, 30% propylene glycol and 40% normal saline. All the mice were administered at a dose of 10 mL/kg body weight for 4 weeks. 4 weeks later, these mice were made to run on treadmill voluntarily for exercise analysis, and the running distance of each of mice when exhausted was recorded. All the mice were untrained before exercise. Each group was perfused with paraformaldehyde, and brain tissue was frozen in liquid nitrogen for ELISA, and then dopamine was detected. The cecal feces of mice were collected and the flora was sequenced by 16s. The proportion of different bacteria in feces was obtained, and the DNA in feces was extracted to detect the copy number of Eubacterium rectale and Coprococcus eutactus. The statistical analysis of data was conducted by unpaired t-test, and * indicates significant difference. Compared with the control group, * means p<0.05; ** means p<0.01; *** means p<0.001; **** means p<0.0001. […]

dopamine = dopamine content in the brain of mice (ELISA); conditions: 4 weeks; for dopamine content in the brain: control 3,293 ng/g brain
Experimental: (§2) Twenty-four pure Swiss male mice were randomly divided into three groups, with 8 mice in each group, and were given food and water freely under the light and dark cycle of 12:12 hours. The first group was the control group (group 1, no DHZ), the second group was given by gavage 50 mg/kg DHZ (group 2), and the third group was given by gavage 100 mg/kg DHZ (group 3). DHZ solution was prepared with 5% DMSO, 25% PEG-400, 30% propylene glycol and 40% normal saline. All the mice were administered at a dose of 10 mL/kg body weight for 4 weeks. 4 weeks later, these mice were made to run on treadmill voluntarily for exercise analysis, and the running distance of each of mice when exhausted was recorded. All the mice were untrained before exercise. Each group was perfused with paraformaldehyde, and brain tissue was frozen in liquid nitrogen for ELISA, and then dopamine was detected. The cecal feces of mice were collected and the flora was sequenced by 16s. The proportion of different bacteria in feces was obtained, and the DNA in feces was extracted to detect the copy number of Eubacterium rectale and Coprococcus eutactus. The statistical analysis of data was conducted by unpaired t-test, and * indicates significant difference. Compared with the control group, * means p<0.05; ** means p<0.01; *** means p<0.001; **** means p<0.0001.

Eubacterium rectale = assay: bacterial copy number of Eubacterium rectale in cecal feces of mice; conditions: after 4 weeks of DHZ administration
Experimental: as §1

[1] = treadmill exercise endurance of mice after 4 weeks administration; conditions: for running distance on treadmill when exhausted (exercise endurance): Swiss male mice, control 948 m
Experimental: as §2

[2] = high dose group (100 mg/kg by gavage)

Compound: COc1cc(/C=C/C(C)=O)ccc1O [DHZ, Dehydrozingerone]
- increase of number (copy number) of Coprococcus eutactus compared with the control group (Coprococcus eutactus): about 3 times
- brain dopamine level, times higher than in the control group (dopamine; [2]): 5 times
- dopamine content in the brain (dopamine; [2]): 19,988 ng/g brain
- dopamine content in the brain (dopamine; low dose group (50 mg/kg by gavage)): 16,285 ng/g brain
- increase of number (copy number) of Eubacterium rectale compared with the control group (Eubacterium rectale): about 3 times
- running distance on treadmill when exhausted (exercise endurance) ([1]; 50 mg/kg DHZ by gavage (low-dose group)): 1112 m
- running distance on treadmill when exhausted (exercise endurance) ([1]; 100 mg/kg DHZ by gavage (high-dose group)): 1367 m
- exercise performance higher than that of control group ([1]; high-dose group (100 mg/kg by gavage)): 44%

— patent US20260130864A1, “METHOD AND COMPOSITION FOR ENHANCING EXERCISE PERFORMANCE” (NANJING NUTRABUILDING BIO-TECH CO., LTD., priority 2023, published 2026)
